Data published in patent US20240383905A1, “FGFR INHIBITORS AND METHODS OF USE THEREOF” (3H PHARMACEUTICALS CO., LTD., priority 2021, published 2024).

Legend:
[1] = biological target: T1, FGFR3 (Homo sapiens, UniProt P22607); assay: FGFR3 Biochemical Caliper Assay (KinEASE-TK kit); conditions: ratio FGFR3/FGFR2 of the biochemical assay
T1 construct: purchased Carna 08-135
Method in brief: (§1)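 KinEASE-TK HTRF readout: enzyme at 0.2 nM (FGFR1, FGFR3) preincubated 10 min at RT with 10-point 3-fold compound dilutions before TK-substrate/ATP start.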

[2] = biological target: T2, FGFR2 (Homo sapiens, UniProt P21802); assay: FGFR2 Biochemical Caliper Assay (KinEASE-TK kit); conditions: 0.07 nM FGFR2; compound incubated with protein 10 min, reaction 45 min at RT; read-out: FGFR2 Cliper IC50
T2 construct: purchased Carna 08-134

[3] = biological target: T3, FGFR1 (Homo sapiens, UniProt P11362); assay: FGFR1 Biochemical Caliper Assay (KinEASE-TK kit); conditions: ratio FGFR1/FGFR2 of the biochemical assay
T3 construct: purchased Carna 08-133
Method in brief: as §1

[4] = system: SNU16 cells; assay: SNU16 Cancer Cell Line Proliferation Assay (CellTiter-Glo); type: cell-based; conditions: Homo sapiens, SNU-16, 72 h
Method in brief: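 SNU16 cells at 5000/well exposed to 9-point 3-fold serial compound dilutions (DMSO control) for 72 h at 37 °C, 5% CO2. Viability read by luminescence; IC50 calculated from dose-response.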

T2 sequence (P21802 22-821): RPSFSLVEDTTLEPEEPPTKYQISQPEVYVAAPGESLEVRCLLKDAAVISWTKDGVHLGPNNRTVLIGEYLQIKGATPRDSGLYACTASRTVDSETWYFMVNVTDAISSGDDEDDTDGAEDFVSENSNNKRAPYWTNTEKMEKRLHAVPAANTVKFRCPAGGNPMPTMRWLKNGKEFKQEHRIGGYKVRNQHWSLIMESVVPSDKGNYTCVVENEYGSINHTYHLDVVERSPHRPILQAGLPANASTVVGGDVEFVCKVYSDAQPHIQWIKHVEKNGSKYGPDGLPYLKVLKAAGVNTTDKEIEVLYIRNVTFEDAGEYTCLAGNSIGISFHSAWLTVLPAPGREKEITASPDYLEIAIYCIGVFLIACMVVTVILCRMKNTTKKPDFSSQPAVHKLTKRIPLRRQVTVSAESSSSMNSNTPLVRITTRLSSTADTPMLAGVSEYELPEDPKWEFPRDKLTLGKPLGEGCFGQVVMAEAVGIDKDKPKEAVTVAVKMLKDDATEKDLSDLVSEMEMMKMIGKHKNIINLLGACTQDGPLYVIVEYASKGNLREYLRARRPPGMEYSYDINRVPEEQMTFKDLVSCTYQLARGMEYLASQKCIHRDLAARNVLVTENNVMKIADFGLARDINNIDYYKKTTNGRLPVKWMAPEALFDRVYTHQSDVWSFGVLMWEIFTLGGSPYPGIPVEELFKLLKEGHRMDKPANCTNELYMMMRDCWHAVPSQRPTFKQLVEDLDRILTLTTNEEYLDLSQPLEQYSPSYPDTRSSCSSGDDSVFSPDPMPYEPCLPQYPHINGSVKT
T1 sequence (P22607 23-806): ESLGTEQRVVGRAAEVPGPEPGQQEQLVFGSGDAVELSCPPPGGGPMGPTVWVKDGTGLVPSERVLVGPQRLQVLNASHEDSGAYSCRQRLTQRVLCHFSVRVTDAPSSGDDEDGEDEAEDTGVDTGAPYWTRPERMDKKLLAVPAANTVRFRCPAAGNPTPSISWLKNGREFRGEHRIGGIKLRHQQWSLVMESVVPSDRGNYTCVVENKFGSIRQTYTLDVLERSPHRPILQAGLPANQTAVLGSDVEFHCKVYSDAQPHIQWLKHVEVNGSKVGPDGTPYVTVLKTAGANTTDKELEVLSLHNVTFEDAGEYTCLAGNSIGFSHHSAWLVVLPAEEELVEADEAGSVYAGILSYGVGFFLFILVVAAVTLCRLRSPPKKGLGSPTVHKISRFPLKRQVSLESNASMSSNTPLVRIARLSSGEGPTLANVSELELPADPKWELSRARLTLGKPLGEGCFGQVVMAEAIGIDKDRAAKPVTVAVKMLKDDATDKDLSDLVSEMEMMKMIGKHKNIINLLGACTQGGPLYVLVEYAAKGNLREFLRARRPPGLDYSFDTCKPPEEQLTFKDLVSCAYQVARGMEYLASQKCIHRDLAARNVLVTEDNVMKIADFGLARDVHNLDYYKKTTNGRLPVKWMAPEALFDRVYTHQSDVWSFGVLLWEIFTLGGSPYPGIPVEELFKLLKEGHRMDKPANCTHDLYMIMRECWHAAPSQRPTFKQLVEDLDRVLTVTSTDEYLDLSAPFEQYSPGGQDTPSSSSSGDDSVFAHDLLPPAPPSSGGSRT
T3 sequence (P11362 22-822): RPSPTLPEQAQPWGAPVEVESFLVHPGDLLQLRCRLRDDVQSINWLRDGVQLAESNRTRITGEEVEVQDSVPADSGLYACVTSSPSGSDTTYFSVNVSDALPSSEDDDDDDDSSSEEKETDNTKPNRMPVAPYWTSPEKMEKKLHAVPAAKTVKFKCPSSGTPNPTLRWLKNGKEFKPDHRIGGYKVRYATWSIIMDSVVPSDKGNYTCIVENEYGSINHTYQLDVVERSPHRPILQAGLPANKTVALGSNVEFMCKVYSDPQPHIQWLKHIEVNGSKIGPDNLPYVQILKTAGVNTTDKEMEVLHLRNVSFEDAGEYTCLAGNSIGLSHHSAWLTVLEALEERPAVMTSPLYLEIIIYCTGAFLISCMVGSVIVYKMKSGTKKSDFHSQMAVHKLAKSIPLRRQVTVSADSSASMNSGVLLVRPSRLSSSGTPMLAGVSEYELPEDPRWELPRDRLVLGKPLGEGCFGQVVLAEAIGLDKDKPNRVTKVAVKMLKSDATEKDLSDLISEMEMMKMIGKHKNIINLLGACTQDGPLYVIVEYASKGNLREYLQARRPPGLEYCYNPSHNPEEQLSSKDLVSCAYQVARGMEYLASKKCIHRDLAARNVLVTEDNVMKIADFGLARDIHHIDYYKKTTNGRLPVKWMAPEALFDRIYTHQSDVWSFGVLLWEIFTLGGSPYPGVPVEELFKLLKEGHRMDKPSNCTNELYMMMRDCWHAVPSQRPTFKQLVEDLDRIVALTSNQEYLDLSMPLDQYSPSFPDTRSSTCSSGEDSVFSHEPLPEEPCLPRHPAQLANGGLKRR

| Structure (SMILES) | Selectivity FGFR3/FGFR2 [1] | IC50 [2] [nM] | Selectivity FGFR1/FGFR2 [3] | IC50 [4] [nM] |
| --- | --- | --- | --- | --- |
| C=CC(=O)Nc1ccc(-c2nn3ncnc(N)c3c2-c2ccc(C(=O)NCC)c(OC)c2)cc1 [Compound 60, 4-(6-(4-acrylamidophenyl)-4-aminopyrazolo[5,1-f] [1,2,4]triazin-5-yl)-N-ethyl-2-methoxybenzamide] | A (Selectivity of FGFR3/FGFR2 less than 150 but greater than or equal to 100) | 5 to 10 | A+ (Selectivity of FGFR1/FGFR2 greater or equal to 500) | ≤ 10 |
| C=CC(=O)Nc1ccc(-c2c(-c3ccc(C(=O)NC4CC4(F)F)c(OC)c3)c3c(N)ncc(C#N)c3n2C)cc1 (stereo not shown) [Compound 167, 4-(2-(4-acrylamidophenyl)-4-amino-7-cyano-1-methyl-1H-pyrrolo[3,2-c]pyridin-3-yl)-N-(2,2-difluorocyclopropyl)-2-methoxybenzamide] | B (Selectivity of FGFR3/FGFR2 less than 100 but greater than or equal to 25) | < 5 | A (Selectivity of FGFR1/FGFR2 less than 500 but greater than or equal to 300) | ≤ 10 |
| C=CC(=O)Nc1ccc(-c2nn3ncnc(N)c3c2-c2ccc(C(=O)NCC(F)(F)F)c(OC)c2)c(F)c1 [Compound 86, 4-(6-(4-acrylamido-2-fluorophenyl)-4-aminopyrazolo[5,1-f] [1,2,4]triazin-5-yl)-2-methoxy-N-(2,2,2-trifluoroethyl)benzamide] | B (Selectivity of FGFR3/FGFR2 less than 100 but greater than or equal to 25) | < 5 | A+ (Selectivity of FGFR1/FGFR2 greater or equal to 500) | ≤ 10 |
| C=C(F)C(=O)Nc1ccc(-c2nn3ncnc(N)c3c2-c2ccc(C(=O)NCC3(C(F)(F)F)CC3)c(OC)c2)c(F)c1 [Compound 361] | A (Selectivity of FGFR3/FGFR2 less than 150 but greater than or equal to 100) | < 5 | A (Selectivity of FGFR1/FGFR2 less than 500 but greater than or equal to 300) | ≤ 10 |
| C=CC(=O)Nc1ccc(-c2nn3ncnc(N)c3c2-c2ccc(C(=O)NCC3CCC3)c(OC)c2)cc1 [Compound 45, 4-(6-(4-acrylamidophenyl)-4-aminopyrazolo[5,1-f] [1,2,4]triazin-5-yl)-N-(cyclobutylmethyl)-2-methoxybenzamide] | B (Selectivity of FGFR3/FGFR2 less than 100 but greater than or equal to 25) | < 5 | B (Selectivity of FGFR1/FGFR2 less than 300 but greater than or equal to 200) | ≤ 10 |
| C=CC(=O)Nc1ccc(-c2c(-c3ccc(C(=O)NC4CCCC4)c(OC)c3)c3c(N)ncc(C#N)c3n2C)cc1 [Compound 109, 4-(2-(4-acrylamidophenyl)-4-amino-7-cyano-1-methyl-1H-pyrrolo[3,2-c]pyridin-3-yl)-N-cyclopentyl-2-methoxybenzamide] | B (Selectivity of FGFR3/FGFR2 less than 100 but greater than or equal to 25) | < 5 | A+ (Selectivity of FGFR1/FGFR2 greater or equal to 500) | ≤ 10 |
| C=C(F)C(=O)Nc1ccc(-c2c(-c3ccc(C(=O)NC4CCC4)cc3)c3c(N)ncc(C#N)c3n2C)cc1 [Compound 97, 4-(4-amino-7-cyano-2-(4-(2-fluoroacrylamido)phe-nyl)-1-methyl-1H-pyrrolo[3,2-c]pyridin-3-yl)-N-cyclobutylbenzamide] | A+ (Selectivity of FGFR3/FGFR2 greater or equal to 150) | 5 to 10 | A+ (Selectivity of FGFR1/FGFR2 greater or equal to 500) | ≤ 10 |
| C=C(C)C(=O)Nc1ccc(-c2c(-c3ccc(Oc4nccc(C)n4)c(F)c3)c3c(N)ncc(C#N)c3n2C)c(C)c1 [Compound 501, N-(4-(4-amino-7-cyano-3-(3-fluoro-4-((4-methylpyrimidin-2-yl)oxy)phenyl)-1-methyl-1H-pyrrolo[3,2-c]pyridin-2-yl)-3-methylphenyl)methacrylamide] | A+ (Selectivity of FGFR3/FGFR2 greater or equal to 150) | > 10 | A+ (Selectivity of FGFR1/FGFR2 greater or equal to 500) | ≤ 10 |
| C=CC(=O)Nc1ccc(-c2nn3ncnc(N)c3c2-c2ccc(C(=O)NC3(C)CC3)c(OC)c2)cc1 [Compound 162, 4-(6-(4-acrylamidophenyl)-4-aminopyrazolo[5,1-f] [1,2,4]triazin-5-yl)-2-methoxy-N-(1-methylcyclopropyl)benzamide] | A+ (Selectivity of FGFR3/FGFR2 greater or equal to 150) | < 5 | A+ (Selectivity of FGFR1/FGFR2 greater or equal to 500) | ≤ 10 |
| C=CC(=O)Nc1ccc(-c2c(-c3ccc(C(=O)NCC)c(OC)c3)c3c(N)ncc(C#N)c3n2C)cc1 [Compound 107, 4-(2-(4-acrylamidophenyl)-4-amino-7-cyano-1-methyl-1H-pyrrolo[3,2-c]pyridin-3-yl)-N-ethyl-2-methoxybenzamide] | A (Selectivity of FGFR3/FGFR2 less than 150 but greater than or equal to 100) | < 5 | A+ (Selectivity of FGFR1/FGFR2 greater or equal to 500) | ≤ 10 |
| C=C(F)C(=O)Nc1ccc(-c2nn3ncnc(N)c3c2-c2ccc(C(=O)NC3CCCC3)c(OC)c2)cc1 [Compound 93, 4-(4-amino-6-(4-(2-fluoroacrylamido)phe-nyl)pyrazolo[5,1-f] [1,2,4]triazin-5-yl)-N-cyclopentyl-2-methoxybenzamide] | A+ (Selectivity of FGFR3/FGFR2 greater or equal to 150) | > 10 | A+ (Selectivity of FGFR1/FGFR2 greater or equal to 500) | ≤ 10 |
| C=CC(=O)Nc1ccc(-c2nn3ncnc(N)c3c2-c2ccc(Oc3nccc(N)n3)c(F)c2)cc1 [Compound 428] | A+ (Selectivity of FGFR3/FGFR2 greater or equal to 150) | > 10 | A+ (Selectivity of FGFR1/FGFR2 greater or equal to 500) | 10 to 50 |
| C=CC(=O)Nc1ccc(-c2nn3ncnc(N)c3c2-c2ccc(NC(=O)C3CC3(F)F)c(OC)c2)cc1 (stereo not shown) [Compound 339, N-(4-(6-(4-acrylamidophenyl)-4-aminopyrazolo[5,1-f][1,2,4]triazin-5-yl)-2-methoxyphenyl)-2,2-difluorocyclopropane-1-carboxamide] | B (Selectivity of FGFR3/FGFR2 less than 100 but greater than or equal to 25) | > 10 | C (Selectivity of FGFR1/FGFR2 less than 200 but greater than or equal to 100) | ≤ 10 |
| C=C(F)C(=O)Nc1ccc(-c2c(-c3ccc(C(=O)NCC(F)(F)F)c(OC)c3)c3c(N)ncc(C#N)c3n2C)c(F)c1 [Compound 151, 4-(4-amino-7-cyano-2-(2-fluoro-4-(2-fluoroacrylamido)phenyl)-1-methyl-1H-pyrrolo [3,2-c]pyridin-3-yl)-2-methoxy-N-(2,2,2-trifluoroethyl)benzamide] | A+ (Selectivity of FGFR3/FGFR2 greater or equal to 150) | 5 to 10 | A+ (Selectivity of FGFR1/FGFR2 greater or equal to 500) | ≤ 10 |
| C=C(F)C(=O)Nc1ccc(-c2nn3ncnc(N)c3c2-c2ccc(C(=O)NC34CC(C3)C4)c(OC)c2)c(F)c1 [Compound 357, 4-(4-amino-6-(2-fluoro-4-(2-fluoroacryl amido)phenyl)pyrazolo[5,1-f][1,2,4]triazin-5-yl)-N-(bicyclo[1.1.1]pentan-1-yl)-2-methoxybenzamide] | A+ (Selectivity of FGFR3/FGFR2 greater or equal to 150) | < 5 | A (Selectivity of FGFR1/FGFR2 less than 500 but greater than or equal to 300) | ≤ 10 |
| C=C(C)C(=O)Nc1ccc(-c2nn3ncnc(N)c3c2-c2ccc(Oc3nccc(C)n3)c(F)c2)c(Cl)c1 [Compound 451] | B (Selectivity of FGFR3/FGFR2 less than 100 but greater than or equal to 25) | < 5 | A (Selectivity of FGFR1/FGFR2 less than 500 but greater than or equal to 300) | ≤ 10 |
| C=CC(=O)Nc1ccc(-c2c(-c3ccc(C(=O)NC(C)C)c(OC)c3)c3c(N)ncc(C#N)c3n2C)cc1 [Compound 108, 4-(2-(4-acrylamidophenyl)-4-amino-7-cyano-1-methyl-1H-pyrrolo[3,2-c]pyridin-3-yl)-N-isopropyl-2-methoxybenzamide] | A (Selectivity of FGFR3/FGFR2 less than 150 but greater than or equal to 100) | < 5 | A+ (Selectivity of FGFR1/FGFR2 greater or equal to 500) | ≤ 10 |
| C=CC(=O)Nc1ccc(-c2nn3ncnc(N)c3c2-c2ccc(C(=O)NC3CC3)c(OC)c2)c(OC)c1 [Compound 154, 4-(6-(4-acrylamido-2-methoxyphenyl)-4-aminopyrazolo[5,1-f][1,2,4]triazin-5-yl)-N-cyclopropyl-2-methoxybenzamide] | A (Selectivity of FGFR3/FGFR2 less than 150 but greater than or equal to 100) | < 5 | A+ (Selectivity of FGFR1/FGFR2 greater or equal to 500) | ≤ 10 |
| C=C(F)C(=O)Nc1ccc(-c2nn3ncnc(N)c3c2-c2ccc(C(=O)NCC(F)(F)F)c(OC)c2)c(C)c1 [Compound 101, 4-(4-amino-6-(4-(2-fluoroacrylamido)-2-methylphenyl)pyrazolo[5,1-f][1,2,4]triazin-5-yl)-2-methoxy-N-(2,2,2-trifluoroethyl)benzamide] | B (Selectivity of FGFR3/FGFR2 less than 100 but greater than or equal to 25) | < 5 | A+ (Selectivity of FGFR1/FGFR2 greater or equal to 500) | ≤ 10 |
